In patent US20200405604A1, “COSMETIC COMPOSITION COMPRISING 4-(3-ETHOXY-4-HYDROXYPHENYL)-2-BUTANONE” (L'OREAL, priority 2011, published 2020):

Test: Solubility test in test solvents
Type: physicochemical
Experimental: The test solvent was poured into a beaker, an amount of the compound 4-(3-ethoxy-4-hydroxyphenyl)-2-butanone was added with magnetic stirring and the mixture was left to stand for between 1 hour and 24 hours. The mixture was then heated to 50° C. and then cooled to room temperature (25° C.) over 24 hours. The system was then observed to see if the amount of compound introduced recrystallized or remained dissolved.
The amount of compound that can be dissolved in the test solvent was determined in this manner. The maximum value corresponds to the amount at and above which the ester compound stops dissolving in the evaluated solvent.

Solubility (in words) (in water or glycerol): very sparingly soluble
Dissolution (in words) (with ethanol, 1,2-propylene glycol, 1,3-propanediol, PEG-8 and propylene carbonate): very satisfactorily dissolved
Dissolution (in words) (with glycerol): very sparingly dissolved
SMILES: CCOc1cc(CCC(C)=O)ccc1O [4-(3-ethoxy-4-hydroxyphenyl)-2-butanone]
